The source of these data is ChEMBL document CHEMBL1141280, “Hirtusneanoside, an unsymmetrical dimeric tetrahydroxanthone from the lichen Usnea hirta” (2007).

The test system of one experiment is Staphylococcus aureus. As to the kind of experiment: Antibacterial activity against Staphylococcus aureus. It counts as functional. As to conditions: read-out: LD50 (the source's name).
A further experiment has as its system Bacillus subtilis. As to the kind of experiment: Antibacterial activity against Bacillus subtilis. It is filed as functional. As to conditions: read-out: LD50 (the source's name).

Consider `COC(=O)[C@@]12Oc3cc(C)c(-c4c(C)cc5c(c4O)C(=O)C4=C(O)C[C@@H](C)[C@@H](O)[C@@]4(CO[C@@H]4O[C@@H](C)[C@H](O)[C@@H](O)[C@H]4O)O5)c(O)c3C(=O)C1=C(O)[C@H](C)[C@@H](C)[C@@H]2O` [HIRTUSNEANOSIDE], for which the LC50 is 3.4 nM in the experiment with Staphylococcus aureus and 14 nM in the experiment with Bacillus subtilis.
